The results in this text go back to patent US20260174747A1, “COMPUTER IMPLEMENTED METHODS OF GENERATING DOSE RECOMMENDATIONS” (National University of Singapore, priority 2022, published 2026).

Molecules are shown by their SMILES.

The nature of the data set: Retrospective analysis of tacrolimus trough levels (TTL) under SOC dosing, 30 days after pediatric liver transplantation. Format: in vivo, pediatric liver transplant patients. The method, then:
CURATE.AI requires two components to be supplied into the platform as inputs: the administered tacrolimus dose in mg (dose) and the corresponding TTL in ng/ml (response) to generate a personalized profile for each patient. […] The response input was the corresponding TTL response measured the next day, right before the morning dose. Days with two measurements of TTL (taken in the morning and evening) instead of one, which is the standard frequency, were excluded. TTL measurements <2 ng/ml were assessed to be inaccurate as the measurement equipment was unable to provide resolution for TTL<2 ng/ml, and were thus excluded. All measurements in the records were only taken once each. Doses recorded from day 30 post-transplant onwards were not included as part of this study since it is during the initial post-transplant period that fluctuations in TTL are common; thereby requiring frequent adjustments in drug dosing. […] Doses recorded from the day of discharge onwards were assessed to be unreliable, as confirmation of the doses administered was not possible, and thus excluded. This study used dose-response pairs over a set of consecutive days for each patient for the analysis by CURATE.AI. Dose ranges were categorized as low (<2 mg), medium (2 mg to <4 mg), and high (≥4 mg).
The normality of the data distribution was tested with the Shapiro-Wilk test. Continuous variables were represented as mean (standard deviation (SD)) or median (interquartile range (IQR)), depending on the normality of the data type. Two-sided Wilcoxon signed-rank test was used to compare the medians of two non-parametric groups. Two-sided paired t-test was used to compare the means of two related parametric groups. The statistical significance was defined as p<0.05. All analyses were performed in Python (version 3.9.13).
The grey region represents the therapeutic range of between and inclusive of 7 and 10 ng/ml. Blue and orange markers represent TTL outside and within the therapeutic range, respectively. […]

Regarding `C=CC[C@@H]1/C=C(\C)C[C@H](C)C[C@H](OC)[C@H]2O[C@@](O)(C(=O)C(=O)N3CCCC[C@H]3C(=O)O[C@H](/C(C)=C/[C@@H]3CC[C@@H](O)[C@H](OC)C3)[C@H](C)[C@@H](O)CC1=O)[C@H](C)C[C@@H]2OC` [tacrolimus], the “days within the therapeutic range (TTL 7 to 10 ng/ml), mean” value (16 patients, mean (SD)) was 42.18 % of days. Besides, for the setting “all 16 patients, first 30 days post-transplant, mean (SD)”, the “mean TTL (tacrolimus trough level)” value turned out to be 8.79 ng/mL. In addition, under “median (IQR)”, the “time to first achieve the therapeutic range (TTL 7 to 10 ng/ml), median” value is 5.00 days.
